“Also recorded” adds a separate entry of the source. Where two headings read alike, the source gives them in different places.
What was measured:
Type in all cases: cell-based
E. coli = test: Antibiotic activity against E. coli
E. coli tolC = test: Antibiotic activity against E. coli tolC in vitro; conditions: E. coli tolC has an impaired cell wall
[1] = tested on: Streptococcus mutans wild-type strain; test: Inhibition of biofilm formation in in vitro culture (live/dead BacLight staining, microtiter plate); conditions: for inhibition at 0.025 µg/mL: Carolacton 0.025 μg/mL; for inhibition at 0.25 µg/mL: Carolacton 0.25 μg/mL; for inhibition at 2.5 µg/mL: Carolacton 2.5 μg/mL; for inhibition at 50 µg/mL: Carolacton 50 μg/mL
Procedure: (§1) Using Streptococcus mutans as a model organism that generates biofilms, overnight cultures of Streptococcus mutans in THB medium (Todd Hewitt Broth, available from Bacto) were diluted 1:100 into fresh THB medium containing 0.5% wt/vol sucrose. For anaerobic growth, medium was flushed with nitrogen before use. Aliquots of the diluted culture (95 μL) of Example 1 were distributed into the wells of a 96-well polystyrene flat bottom microtiter plate, containing 5 μL of different concentrations of test compound or alternatively, 5 μL methanol as a control. Microtiter plates were incubated under aerobic and an anaerobic conditions, respectively, at 37° C. for approximately 24 hours. For non-biofilm forming growth, e.g. planctonic growth, cells were grown in THB without the additional sucrose under otherwise identical conditions.
(§2) Bacterial growth was monitored in the microtiter plate by optical density readings at 620 nm. Quantitative bio film formation was determined using the live/dead bacLight bacterial viability staining kit (available under catalogue number L13152 from Molecular Probes, Eugene, Oreg., USA). The kit incorporates two nucleic acid stains that differ in spectral characteristics and their ability to penetrate bacterial cell membranes. When used alone, the green fluorescing stain Cyto9 generally labels all bacteria in the population, whereas the red fluorescing stain propidium-iodide only penetrates bacteria having damaged membranes, causing a reduction in the Cyto9 stain fluorescence when both dyes are present.
For staining, the culture medium was removed from the microtiter plate wells and cells were washed once with 100 μL fresh THB medium to remove planctonic growing and loosely bound cells. According to all the manufacturer's instructions, the adherent bacteria, regarded as the bio film, were then stained for 15 min in the dark at room temperature, using 100 μL of a 1:1 mixture of the two dye components. Fluorescence was measured in a microtiter plate reader (Wallac Victor 1420 multilabel counter, PerkinElmer Life Sciences), equipped with detectors and filter sets for monitoring red and green fluorescence.
Quantitative bio film formation was calculated by dividing the fluorescence intensities of the stained biofilms for each well of the microtiter plate at an emission of 530 nm (green) by the fluorescence intensity at the emission of 630 nm (red). As 100% activity, the results obtained from wells only containing methanol as the control, instead of a test compound, was used. Under anaerobic conditions, Carolacton inhibited formation of biofilm from Streptococcus mutans at very low concentrations.
For a determination of bio film inhibition in relation to the control, the activity value for the Carolacton comprising test well was subtracted from the value obtained for the control. At concentrations of 2.5 and 0.25 μg/mL Carolacton, respectively, bio film formation by Streptococcus mutans wild-type strain was inhibited by about 60% under anaerobic conditions.

[2] = tested on: Streptococcus mutans com E (−) mutant; test: Inhibition of biofilm formation, quorum sensing negative mutant com E (-)
[3] = tested on: Streptococcus mutans com D (−) mutant; test: Inhibition of biofilm formation, quorum sensing negative mutant com D (-); conditions: read-out: Biofilm inhibition, com D (−) mutant
Procedure: as §1
as §2, with “The kit incorporates two nucleic acid stains that differ in spectral characteristics and their ability to penetrate bacterial cell membranes.” left out, “present. […]” for “present.”

[4] = tested on: Streptococcus mutans com C (−) mutant; test: Biofilm formation, quorum sensing negative mutant com C (-); conditions: same testing conditions
Procedure: as §1
as §2, with “The kit incorporates two nucleic acid stains that differ in spectral characteristics and their ability to penetrate bacterial cell membranes.” left out, “present. […]” for “present.”

[5] = tested on: Streptococcus mutans luxS mutant; test: Inhibition of biofilm formation, luxS mutant; conditions: read-out: Biofilm inhibition, luxS mutant
Procedure: as §1
as §2, with “The kit incorporates two nucleic acid stains that differ in spectral characteristics and their ability to penetrate bacterial cell membranes.” left out, “present. […]” for “present.”

[6] = tested on: Streptococcus mutans planctonic cultures; test: Planctonic growth (optical density readings at 620 nm); conditions: THB without additional sucrose
Procedure: as §1
as §2, with “The kit incorporates two nucleic acid stains that differ in spectral characteristics and their ability to penetrate bacterial cell membranes.” left out

[7] = Streptococcus mutans, aerobic, read-out: Biofilm inhibition (%) under aerobic conditions
[8] = Streptococcus mutans, anaerobic, read-out: Biofilm inhibition (%) under anaerobic conditions

Question: What does the source list for `COC(CC(=O)O)C(C)C(=O)C(C)/C=C(\C)C1OC(=O)C(O)C(O)/C=C/C(C)CCCC1C` (stereo not shown) [Carolacton]?
Answer: Concentration needed to inhibit E. coli (E. coli): above 40 μg/mL; Concentration with antibiotic activity against E. coli tolC (E. coli tolC): 60 ng/mL; inhibition at 0.025 µg/mL [1, 7]: 21%; inhibition at 0.25 µg/mL [1, 7]: 21%; inhibition at 2.5 µg/mL [1, 7]: 19%; inhibition at 50 µg/mL [1, 7]: 1%; inhibition at 0.0025 µg/mL ([1]; Streptococcus mutans, anaerobic, Carolacton 0.0025 μg/mL, read-out: Biofilm inhibition (%) under anaerobic conditions): -7%; inhibition at 0.005 µg/mL ([1]; Streptococcus mutans, anaerobic, Carolacton 0.005 μg/mL, read-out: Biofilm inhibition (%) under anaerobic conditions): 35%; inhibition at 0.025 µg/mL [1, 8]: ~65%; inhibition at 0.05 µg/mL ([1]; Streptococcus mutans, anaerobic, Carolacton 0.05 μg/mL, read-out: Biofilm inhibition (%) under anaerobic conditions): 60%; inhibition at 0.25 µg/mL [1, 8]: ~60%; inhibition at 0.25 µg/mL ([1]; Streptococcus mutans, anaerobic, second experiment, read-out: Biofilm inhibition (%) under anaerobic conditions): 77%; inhibition at 2.5 µg/mL [1, 8]: ~60%; inhibition at 25 µg/mL ([1]; Streptococcus mutans, anaerobic, Carolacton 25 μg/mL, read-out: Biofilm inhibition (%) under anaerobic conditions): 66%; inhibition at 50 µg/mL [1, 8]: 82%; Lowest concentration achieving inhibition of biofilm generation ([1]; in vitro cultures): 0.005 µg/mL; Biofilm inhibition, com E (−) mutant ([2]; Carolacton 2.5 μg/mL, same testing conditions): 5%; inhibition at 0.25 µg/mL ([2]; Streptococcus mutans, read-out: Biofilm inhibition, com E (−) mutant): 12%; inhibition at 0.25 µg/mL [3]: ~10%; inhibition at 2.5 µg/mL [3]: ~10%; Induction of biofilm formation, com C (−) mutant ([4]; Carolacton 0.25 μg/mL): 150%; Induction of biofilm formation, com C (−) mutant ([4]; Carolacton 2.5 μg/mL): 200%; inhibition at 2.5 µg/mL [5]: 59%; inhibition at 40.25 µg/mL [5]: 46%; Influence on planctonic growth [6]: only slightly influenced; also recorded: not influenced by Carolacton, or only marginally reduced
